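Compound exposure: 48 hours, 5 concentrations, 96-well plates. TGI denotes the concentration required for complete inhibition of growth.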

Test systems include EKVX NSCLC; IGROV1 ovarian; COLO 205 colon; OVCAR-5 ovarian; HT29 colon; NCI-H226 lung; KM12 colon; SNB-75 CNS; 786-0 renal; HOP-62 NSCLC; SF-295 CNS; SNB-19 CNS; HCT-116 colon; HCC-2998 colon; SF-268 CNS; MALME-3M melanoma; RXF 393 renal; HS 578T breast.
Holding throughout (experiment): growth of human tumour cells (NCI), 48 h

For `CC(=O)Oc1cc2c(n(C)c1=O)CCC2`, the TGI with EKVX NSCLC, in the experiment on IGROV1 ovarian, with COLO 205 colon, in the experiment on OVCAR-5 ovarian, with HT29 colon and in the experiment with NCI-H226 lung was above 100 µM each time. For the same molecule, the TGI with KM12 colon, in the experiment on SNB-75 CNS, in the experiment on 786-0 renal, with HOP-62 NSCLC, in the experiment with SF-295 CNS and with SNB-19 CNS was above 100 µM each time. The TGI with HCT-116 colon, with HCC-2998 colon, in the experiment with SF-268 CNS and in the experiment with MALME-3M melanoma was above 100 µM each time.
Turning to `CCN1CCC(O)(/C=C/c2ccc(Cl)cc2)C(C(=O)/C=C/c2ccc(Cl)cc2)C1` (stereo not drawn), the TGI in the experiment on EKVX NSCLC is above 100 µM; with IGROV1 ovarian, 62.6 µM; in the experiment with COLO 205 colon, above 100 µM; in the experiment with OVCAR-5 ovarian, above 100 µM; in the experiment with HT29 colon it was 42.8 µM; in the experiment on NCI-H226 lung, 43.6 µM. The TGI in the experiment on KM12 colon was 29.5 µM; in the experiment with SNB-75 CNS it was 74.5 µM; in the experiment on 786-0 renal, 43.3 µM; in the experiment on HOP-62 NSCLC, above 100 µM; in the experiment on SF-295 CNS it was 60.3 µM; in the experiment on SNB-19 CNS it was above 100 µM. Also, the TGI is 13.4 µM with HCT-116 colon, 32.8 µM with HCC-2998 colon, above 100 µM in the experiment on SF-268 CNS and above 100 µM in the experiment on MALME-3M melanoma.
With `NC(=O)N/N=C/c1ccccc1O`, the TGI with EKVX NSCLC, in the experiment on IGROV1 ovarian, with COLO 205 colon, with RXF 393 renal, with HT29 colon and with NCI-H226 lung was above 100 µM each time. The TGI in the experiment on KM12 colon, in the experiment on SNB-75 CNS, in the experiment on 786-0 renal, in the experiment with HOP-62 NSCLC, with HS 578T breast and in the experiment on SF-295 CNS was above 100 µM each time. The TGI in the experiment on SNB-19 CNS, in the experiment on HCT-116 colon, in the experiment on HCC-2998 colon and in the experiment with SF-268 CNS was above 100 µM in each case.
In the case of `Cc1nc2c(s/c(=N\N)n2-c2ccccc2)c(=O)n1C`, the TGI in the experiment with EKVX NSCLC, with IGROV1 ovarian, with COLO 205 colon, with OVCAR-5 ovarian, with RXF 393 renal and with HT29 colon was above 100 µM in each case. The TGI in the experiment on NCI-H226 lung, with KM12 colon, in the experiment on SNB-75 CNS, in the experiment with 786-0 renal, in the experiment on SF-295 CNS and in the experiment with SNB-19 CNS was above 100 µM in each case. Besides, the TGI in the experiment with HCT-116 colon, in the experiment with HCC-2998 colon and in the experiment on SF-268 CNS was above 100 µM each time.
For `Cc1ccc(C(=O)C(C)N)cc1C` (stereo not drawn), the TGI with EKVX NSCLC, in the experiment with IGROV1 ovarian, with COLO 205 colon, with RXF 393 renal, in the experiment with HT29 colon and in the experiment with NCI-H226 lung was above 100 µM each time. Moreover, the TGI in the experiment on KM12 colon, in the experiment with SNB-75 CNS, in the experiment on 786-0 renal, in the experiment with HOP-62 NSCLC, in the experiment on SF-295 CNS and in the experiment with SNB-19 CNS was above 100 µM in each case. In addition, the TGI in the experiment with HCT-116 colon, in the experiment with HCC-2998 colon, in the experiment with SF-268 CNS and with MALME-3M melanoma was above 100 µM each time.
`C#CC1(O)CC(c2ccccc2)N(C)C(c2ccccc2)C1` (stereo not drawn): the TGI with EKVX NSCLC, with IGROV1 ovarian, with COLO 205 colon, in the experiment with OVCAR-5 ovarian, in the experiment on RXF 393 renal and with HT29 colon was above 100 µM each time. The TGI in the experiment with NCI-H226 lung, with KM12 colon, in the experiment on SNB-75 CNS, with 786-0 renal, with HOP-62 NSCLC and with SF-295 CNS was above 100 µM each time. In addition, the TGI in the experiment with SNB-19 CNS is above 100 µM; with HCT-116 colon, 32.4 µM; with HCC-2998 colon it was above 100 µM; with SF-268 CNS, above 100 µM; in the experiment with MALME-3M melanoma it was above 100 µM.
`Cn1c2c(c3c(=O)[nH]ncc31)CCCc1ccccc1-2`: the TGI in the experiment with EKVX NSCLC is above 100 µM; in the experiment with IGROV1 ovarian, 61.6 µM; in the experiment with COLO 205 colon, 34.5 µM; in the experiment with OVCAR-5 ovarian, above 100 µM; in the experiment with HT29 colon, above 100 µM; in the experiment with NCI-H226 lung, 86 µM. Besides, the TGI in the experiment with KM12 colon, in the experiment on SNB-75 CNS, in the experiment with 786-0 renal, in the experiment with HOP-62 NSCLC, in the experiment on HS 578T breast and with SF-295 CNS was above 100 µM throughout. Also, the TGI in the experiment with SNB-19 CNS was above 100 µM; in the experiment on HCT-116 colon, above 100 µM; in the experiment on SF-268 CNS it was 98.8 µM; with MALME-3M melanoma it was 60.7 µM.
For `Cc1cc2nc3c(C#N)c4c(c(Nc5ccc(Cl)cc5)n3c2cc1C)CCC4`, the TGI is above 100 µM with EKVX NSCLC; 59.1 µM in the experiment on COLO 205 colon; 36.3 µM in the experiment on OVCAR-5 ovarian; 33.8 µM with RXF 393 renal; 32 µM in the experiment on HT29 colon; 64.7 µM in the experiment on NCI-H226 lung. In addition, the TGI in the experiment on KM12 colon was above 100 µM; in the experiment on SNB-75 CNS, above 100 µM; in the experiment on 786-0 renal it was 29.3 µM; in the experiment with HOP-62 NSCLC, above 100 µM; in the experiment on SF-295 CNS, above 100 µM; in the experiment with HCT-116 colon, 30.4 µM. Besides, the TGI in the experiment with SF-268 CNS is 33.6 µM; with MALME-3M melanoma, 55 µM.
Turning to `COC(=O)/C=C/N1CC1`, the TGI in the experiment on EKVX NSCLC is above 10 µM; in the experiment with IGROV1 ovarian, 6.15 µM; in the experiment on COLO 205 colon, 9.07 µM; in the experiment on OVCAR-5 ovarian it was above 10 µM; in the experiment on HT29 colon, above 10 µM; with NCI-H226 lung it was above 10 µM. Besides, the TGI in the experiment with KM12 colon, in the experiment on SNB-75 CNS, with 786-0 renal, in the experiment with HOP-62 NSCLC, with HS 578T breast and with SF-295 CNS was above 10 µM throughout. Besides, the TGI in the experiment with SNB-19 CNS, with HCT-116 colon, in the experiment on HCC-2998 colon, with SF-268 CNS and in the experiment on MALME-3M melanoma was above 10 µM each time.

For the origin of these results see PubChem BioAssay (NCI).
